target: T1, GCase (Homo sapiens, UniProt P04062); assay: activation of GCase in a live cell PFB assay in HELA cells; type: cell-based
T1 construct: endogenous in cells; host or cells: HeLa cells
T1 sequence (P04062 40-536): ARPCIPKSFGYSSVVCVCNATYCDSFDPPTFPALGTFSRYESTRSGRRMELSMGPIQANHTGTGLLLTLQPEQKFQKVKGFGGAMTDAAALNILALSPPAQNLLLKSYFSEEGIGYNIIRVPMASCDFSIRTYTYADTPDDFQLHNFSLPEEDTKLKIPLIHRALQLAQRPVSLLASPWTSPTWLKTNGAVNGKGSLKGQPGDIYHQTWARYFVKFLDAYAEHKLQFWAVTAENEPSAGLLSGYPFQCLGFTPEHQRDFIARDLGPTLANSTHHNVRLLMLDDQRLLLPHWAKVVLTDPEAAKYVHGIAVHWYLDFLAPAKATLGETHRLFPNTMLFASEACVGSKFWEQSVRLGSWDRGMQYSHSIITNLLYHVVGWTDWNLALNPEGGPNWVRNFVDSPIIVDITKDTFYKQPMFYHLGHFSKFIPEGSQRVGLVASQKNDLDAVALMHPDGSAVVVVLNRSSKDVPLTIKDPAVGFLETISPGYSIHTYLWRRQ

Structure (SMILES) | EC50 [µM]
CC(Oc1cccnc1C(F)(F)F)C1CCCN(c2cnc3cnn(CC(F)F)c3n2)C1 (centres unmarked) [Compound 26, 1-(2,2-Difluoroethyl)-6-(3-(1-((2-(trifluoromethyl)pyridin-3-yl)oxy)ethyl)piperidin-1-yl)-1H-pyrazolo[3,4-b]pyrazine] | < 10
C[C@@H]1CC[C@H](COc2ncccc2C(F)(F)F)CN1c1cnc2cnn(CC(F)F)c2n1 [Compound 277, 1-(2,2-Difluoroethyl)-6-((2R,5S)-2-methyl-5-(((3-(trifluoromethyl)pyridin-2-yl)oxy)methyl)piperidin-1-yl)-1H-pyrazolo[3,4-b]pyrazine] | 10 to 50
CCn1c(-c2nncs2)nc2ncc(N3CCCC(COc4ccccc4C)C3)nc21 (centres unmarked) [Compound 30, 2-(1-Ethyl-6-(3-((o-tolyloxy)methyl)piperidin-1-yl)-1H-imidazo[4,5-b]pyrazin-2-yl)-1,3,4-thiadiazole] | > 100
CC(C)c1cc(C(=O)N2CCCC(COc3ccccc3)C2)c(C(C)C)o1 (centres unmarked) [Compound 207] | < 10
Cn1c(-c2ccccc2)cc2ncc(N3CCCC(COc4cccnc4C(F)(F)F)C3)nc21 (centres unmarked) [Compound 33, 5-Methyl-6-phenyl-3-(3-(((2-(trifluoromethyl)pyridin-3-yl)oxy)methyl)piperidin-1-yl)-5H-pyrrolo[2,3-b]pyrazine] | 10 to 50
C[C@H](Oc1cccnc1C(F)(F)F)[C@H]1CCCN(c2cncc(-c3nncs3)n2)C1 [Compound 45a, 2-(6-((S)-3-((S)-1-((2-(Trifluoromethyl)pyridin-3-yl)oxy)ethyl)piperidin-1-yl)pyrazin-2-yl)-1,3,4-thiadiazole] | < 10
Fc1nccc(OC[C@@H]2[C@H]3CN(c4cnc5cnn(C6COC6)c5n4)C[C@@H]23)c1F [Compound 228] | 10 to 50
COc1cnc2c(n1)c(C(=O)N1CCCC(COc3ccccc3C)C1)c(-c1ccccc1)n2C (centres unmarked) [Compound 264, (2-Methoxy-5-methyl-6-phenyl-5H-pyrrolo[2,3-b]pyrazin-7-yl)(3-((o-tolyloxy)methyl)piperidin-1-yl)methanone] | 10 to 50
C[C@H]1C[C@@H](COc2cccnc2C(F)(F)F)CN(c2cnc3cnn(CC(F)F)c3n2)C1 [Compound 93, 1-(2,2-Difluoroethyl)-6-((3S,5R)-3-methyl-5-(((2-(trifluoromethyl)pyridin-3-yl)oxy)methyl)piperidin-1-yl)-1H-pyrazolo[3,4-b]pyrazine] | < 10
Cc1ccc(-c2nc(N3CCC(CO)CC3)ncc2-c2ccc(CO)cc2)cc1 [Compound 485] | 10 to 50
O=C(c1cc(-c2cccc(F)c2)no1)N1CCCC(COc2ccccc2)C1 (centres unmarked) [Compound 197] | 10 to 50
Cn1c(-c2ccc(F)cc2)nc2nc(C(=O)N3CCCC(COc4cccnc4C(F)(F)F)C3)cnc21 (centres unmarked) [Compound 97, (2-(4-Fluorophenyl)-1-methyl-1H-imidazo[4,5-b]pyrazin-5-yl)(3-(((2-(trifluoromethyl)pyridin-3-yl)oxy)methyl)piperidin-1-yl)methanone] | > 100
C[C@@H]1C[C@H](COc2cccnc2C(F)(F)F)CN(c2cnc3cnn(CC45CC(C4)C5)c3n2)C1 [Compound 281, 1-(Bicyclo[1.1.1]pentan-1-ylmethyl)-6-((3R,5S)-3-methyl-5-(((2-(trifluoromethyl)pyridin-3-yl)oxy)methyl)piperidin-1-yl)-1H-pyrazolo[3,4-b]pyrazine] | < 10
FC(F)Cn1ncc2ncc(N3CCCC(COc4cccnc4Cl)C3)nc21 (centres unmarked) [Compound 59, 2-Chloro-3-({1-[1-(2,2-difluoroethyl)pyrazolo[3,4-b]pyrazin-6-yl]piperidin-3-yl}methoxy) pyridine] | < 10
C[C@@H]1CC[C@H](COc2ccncc2C(F)(F)F)CN1c1cnc2cnn(CC(F)F)c2n1 [Compound 282, 1-(2,2-Difluoroethyl)-6-((2R,5S)-2-methyl-5-(((3-(trifluoromethyl)pyridin-4-yl)oxy)methyl)piperidin-1-yl)-1H-pyrazolo[3,4-b]pyrazine] | < 10
FC(F)Cn1ncc2ncc(N3CCC(Oc4cc(C(F)(F)F)ccn4)CC3)nc21 [Compound 326, 1-(2,2-Difluoroethyl)-6-(4-((4-(trifluoromethyl)pyridin-2-yl)oxy)piperidin-1-yl)-1H-pyrazolo[3,4-b]pyrazine] | 10 to 50
C[C@@H]1CC[C@@H](COc2cccnc2C(F)(F)F)CN1c1cnc2cnn(CC(F)F)c2n1 [Compound 79, 1-(2,2-Difluoroethyl)-6-((2R,5R)-2-methyl-5-(((2-(trifluoromethyl)pyridin-3-yl)oxy)methyl)piperidin-1-yl)-1H-pyrazolo[3,4-b]pyrazine] | < 10
CC(CC1CCCN(c2cnc3cnn(CC(F)F)c3n2)C1)c1cccnc1C(F)(F)F (centres unmarked) [Compound 108, 1-(2,2-Difluoroethyl)-6-(3-(2-(2-(trifluoromethyl)pyridin-3-yl)propyl)piperidin-1-yl)-1H-pyrazolo[3,4-b]pyrazine] | 50 to 100
O=C(c1cc2cccc(Cl)c2s1)N1CCCC(COc2ccccc2)C1 (centres unmarked) [Compound 218] | 10 to 50
Cc1ccccc1OCC1CCCN(C(=O)c2cnn3c(-c4ccccc4)ccc(F)c23)C1 (centres unmarked) [Compound 292, (4-Fluoro-7-phenylpyrazolo[1,5-a]pyridin-3-yl)(3-((o-tolyloxy)methyl)piperidin-1-yl)methanone] | 10 to 50
C[C@H](Oc1ccccc1C(F)(F)F)[C@@H]1CCCN(c2cnc3cnn(CC(F)F)c3n2)C1 [Compound 266b, 1-(2,2-difluoroethyl)-6-((R)-3-((S)-1-(2-(trifluoromethyl)phenoxy)ethyl)piperidin-1-yl)-1H-pyrazolo[3,4-b]pyrazine] | 10 to 50

The next lines start with the values.

EC50 [µM] | Structure (SMILES)
50 to 100 | O=C(c1ccc2cc[nH]c2c1)N1CCC(Oc2ccc(C(F)(F)F)nc2)CC1 [Compound 314, (1H-Indol-6-yl)(4-((6-(trifluoromethyl)pyridin-3-yl)oxy)piperidin-1-yl)methanone]
10 to 50 | CC(C)Sc1ccc(CC(=O)N2CCC(Oc3ccc(C(F)(F)F)cn3)CC2)cc1 [Compound 383]
10 to 50 | O=C(CCCc1ccccc1)N1CCC(Oc2ccc(C(F)(F)F)cn2)CC1 [Compound 386]
10 to 50 | FC(F)Cn1ncc2ncc(N3CCC(Oc4cccc(C(F)(F)F)n4)CC3)nc21 [Compound 309, 1-(2,2-Difluoroethyl)-6-(4-((6-(trifluoromethyl)pyridin-2-yl)oxy)piperidin-1-yl)-1H-pyrazolo[3,4-b]pyrazine]
> 100 | C[C@@H]1CC[C@H](COc2cccc(C(F)(F)F)n2)CN1c1cnc2cnn(CC(F)F)c2n1 [Compound 269, 1-(2,2-Difluoroethyl)-6-((2R,5S)-2-methyl-5-(((6-(trifluoromethyl)pyridin-2-yl)oxy)methyl)piperidin-1-yl)-1H-pyrazolo[3,4-b]pyrazine]
10 to 50 | O=C(Cc1c[nH]c2ccccc12)N1CCC(Oc2ccc(C(F)(F)F)cn2)CC1 [Compound 7]
10 to 50 | O=C(c1ccc2cc[nH]c2c1)N1CCC(Oc2cncc(C(F)(F)F)c2)CC1 [Compound 307, (1H-Indol-6-yl)(4-((5-(trifluoromethyl)pyridin-3-yl)oxy)piperidin-1-yl)methanone]
10 to 50 | O=C(c1ccc2cc[nH]c2c1)N1CCC(COc2ccccc2)CC1 [Compound 416, 6-[4-(Phenoxymethyl)piperidine-1-carbonyl]-1H-indole]
10 to 50 | CCc1cc(N2CCC(COc3ccc(OC)cc3)CC2)ncn1 [Compound 464]
10 to 50 | COc1ccc(OCC2CCN(Cc3ccc(CO)o3)CC2)cc1 [Compound 448]
10 to 50 | CC(C)(C)CC(=O)N1CCC(COc2cccc(C(F)(F)F)n2)CC1 [Compound 351]
10 to 50 | C[C@@H]1CC[C@H](COc2ccc(C(F)(F)F)nc2)CN1c1cnc2cnn(CC(F)F)c2n1 [Compound 272, 1-(2,2-Difluoroethyl)-6-((2R,5S)-2-methyl-5-(((6-(trifluoromethyl)pyridin-3-yl)oxy)methyl)piperidin-1-yl)-1H-pyrazolo[3,4-b]pyrazine]
10 to 50 | COc1ccc(OCC2CCN(C(=O)COCC3CCCO3)CC2)cc1 (centres unmarked) [Compound 422]
10 to 50 | O=C(Cc1csc(-c2ccccc2)n1)N1CCC(Oc2cccnc2C(F)(F)F)CC1 [Compound 400, 2-(2-Phenyl-1,3-thiazol-4-yl)-1-(4-{[2-(trifluoromethyl)pyridin-3-yl]oxy}piperidin-1-yl)ethan-1-one]
> 100 | COc1ccc(OCC2CCN(c3nc(N)nc(C)c3C)CC2)cc1 [Compound 458]
> 100 | CC(CSC(F)(F)F)C(=O)N1CCCC(COc2ccccc2)C1 (centres unmarked) [Compound 133]
> 100 | COc1ccc(OCC2CCN(C(=O)CN3CCCN(C)CC3)CC2)cc1 [Compound 474]
50 to 100 | COc1ccc(OCC2CCN(C(=O)Nc3cnn(C)c3C)CC2)cc1 [Compound 439]
10 to 50 | N#Cc1cc(C(F)(F)F)cnc1OC1CCN(C(=O)c2ccc3cc[nH]c3c2)CC1 [Compound 332, 2-((1-(1H-Indole-6-carbonyl)piperidin-4-yl)oxy)-5-(trifluoromethyl)nicotinonitrile]
< 10 | FC(F)Cn1ncc2ncc(N3CCC(COc4ccncc4C(F)(F)F)CC3)nc21 [Compound 308, 1-(2,2-Difluoroethyl)-6-(4-(((3-(trifluoromethyl)pyridin-4-yl)oxy)methyl)piperidin-1-yl)-1H-pyrazolo[3,4-b]pyrazine]
